# Data as given in paper PMC6752957, “Beta-defensins and analogs in Helicobacter pylori infections: mRNA expression levels, DNA methylation, and antibacterial activity” (PLoS ONE, 2019).
# No end group written: not given here.
# What was measured:
# [1] = cited from earlier work; for antimicrobial activity at high NaCl concentrations: background statement of the introduction
# Text: Defensins exert their killing activity against bacteria, yeasts, fungi, and viruses. The activity of antimicrobial peptides involves the initial electrostatic binding to the cell membrane of microorganisms and subsequent incorporation into the membrane. This antimicrobial action induces damage or even destruction of the microbial cell membrane via pore formation. […] We previously reported the killing activity of β-defensin ...
# [2] = test system: H. pylori (ATCC49503 (tox+ strain 60190)); test: CFU assay of antimicrobial activity against H. pylori, with salt dependence; assay type: cell-based, Helicobacter pylori
# Description: CFU assays of the antimicrobial activities of HBDs against H. pylori (ATCC49503 (tox+ strain 60190); American Type Culture Collection, ATCC) were performed. The toxin-producing H. pylori strain was revived from frozen stocks by seeding on a blood agar plate (7% horse blood) at 37°C for 3 days in microaerophilic conditions (O2:10% and […]) generated with Anaeropack Campylo (Mitsubishi Gas Chemicals Corp.). Bacteria harvested from the plates were suspended in 200 ml of brain heart infusion broth (10% fetal calf serum) and grown in liquid culture at 37°C for three days while shaking in a monitored microaerophilic atmosphere.
# H. pylori was incubated with HBDs for two hours at 37°C. Two concentrations of peptides (2.5 μM and 12.5 μM) were used. For the salt dependence assay, 0, 50, 100, and 200 mM concentrations of NaCl were added in the incubation buffer as previously described. Each assay was done in triplicate.
# Antimicrobial activity of HBD2-4 and the analogs 3N and 3NI was evaluated on H. pylori, cultured on HP agar for 4 d after a […] pre-incubation with or without chemically synthesized HBD-2-4 and 3N and 3NI analogs. The two peptide sequences are derived from HBD1 and HBD3. 3N analog is the HBD3 sequence without the N-terminal domain that HBD1 lacks.
# We evaluated two concentrations of every peptide (2.5 and 12.5 μM) and 4 NaCl concentrations (0, 50, 100, and 200 mM). Antibacterial activity of 3NI against H. pylori started at concentrations as low as 2.5 μM in the presence of at least 200 mM NaCl.
Substance,antimicrobial activity at high NaCl concentrations [1],other results
"ELDRIC^1GYGTARC^2RKK-C^3RSQEYRIGRC^4PNTYAC^5C^6LRK (bicyclic or more) [HBD4, human beta-defensin 4, purchased from Peptides International]",reduced by high NaCl concentrations,–
"GIGDPVTC^1LKSGAIC^2HPVFC^3PRRYKQIGTC^4GLPGTKC^5C^6KKP (bicyclic or more) [HBD2, human beta-defensin 2, purchased from Peptides International]",reduced by high NaCl concentrations,–
"GIINTLQKYYC^1RVRGGRC^2AVLSC^3LPKEEQIGKC^4STRGRKC^5C^6RRKK (bicyclic or more) [HBD3, human beta-defensin 3, purchased from Peptides International]",still active up to 150 mM NaCl concentrations,–
"HBD1: human beta-defensin 1, constitutively synthesized; only mentioned in background, not tested here (DHYNCVSSGGQCLYSACPIFTKIQGTCYRGKAKCCK; not fully specified; ends and bridges not checked; UniProt P60022 33-68, looked up)",reduced by high NaCl concentrations,–
KYYC^1RVRGGRC^2AVLSC^3PIFTKIQGTC^4STRGRKC^5C^6RRKK (bicyclic or more) [3NI],–,"antibacterial activity against H. pylori in contrast to wild-type peptides ([2]; 2.5 and 12.5 μM, 0, 50, 100 and 200 mM NaCl (Fig 4 title)): increased antibacterial activity; concentration at which antibacterial activity against H. pylori started ([2]; in the presence of at least 200 mM NaCl, CFU assay, peptides tested at 2.5 and 12.5 μM, triplicate): 2.5 µM; resistance of killing activity to high NaCl concentrations ([1]; earlier work of the authors): resistant to high NaCl concentrations"
QKYYC^1RVRGGRC^2AVLSC^3LPKEEQIGKC^4STRGRKC^5C^6RRKK (bicyclic or more) [3N],–,"antibacterial activity against H. pylori at 12.5 μM ([2]; 12.5 μM peptide, 0, 50, 100 and 200 mM NaCl, 3 independent experiments (Fig 4)): little antibacterial effect"
